Settings in all cases: 125I-somatostatin-14 binding inhibition, CHO cell membrane fraction, 25°C for 60 minutes, Hill plots
For assay [1], the target named is T1, human somatostatin receptor protein subtype 2 (SSTR2) (Homo sapiens, UniProt P30874).
T1 construct: expressed in transfected cells; host or cells: CHO (dhfr-) cells, strain SSTR2-HS5-9, plasmid pAC01 (pAKKO-111 vector); membrane fraction
The assay is described as follows: Measurement of the binding inhibition rate of 125I-Somatostatin (SSTR2). How it is done: 1 x 10^6 CHO (dhfr^-) cells were cultured for 24 hours in HAM F12 medium containing 10% bovine fetal serum on a laboratory dish of 8 cm in diameter. To the cells was transfected 10 µg of the human SSTR2 cDNA expression plasmid, pA-C01, obtained under the above (5) by the calcium phosphate method (Cell Phect Transfection Kit: Pharmacia). The medium was switched to DMEM medium containing 10% dialyzed bovine fetal serum 24 hours after the transfection to select the colony-forming cells (i.e. DHFR^+ cells) in this medium. Further, the selected cells were cloned from a single cell by the limiting dilution method and a cell strain which highly expresses human SSTR2, SSTR2-HS5-9, was selected.
(§1) Measurement of the binding inhibition rate of ^125I-Somatostatin
(§2) The receptor binding inhibition rate (%) of the subject compound was calculated using each of the membrane fractions prepared in Experimental Examples 1 and 2.
(§3) The membrane fraction was diluted with a buffer solution for assay to adjust the concentration to 3 µg/ml. The diluate was placed in tubes each in quantity of 173 µl. To this were simultaneously added 2 µl of a solution of a subject compound in DMSO and 25 µl of a 200 pM radioisotope-labeled somatostatin-14 (^125I-somatostatin-14: Amersham). For measurement of the maximum binding, a reaction mixture added with 2 µl of DMSO and 25 µl of a 200 pM ^125I-somatostatin was prepared. For measurement of non-specific binding, a reaction mixture added with 2 µl of a 100 µM somatostatin solution in DMSO and 25 µl of a 200 pM ^125I-somatostatin solution was prepared at the same time. The mixtures were allowed to react at 25°C for 60 minutes. Then, the reaction mixture was filtered by aspiration using a Whatman glass filter (GF-B) treated with polyethylenimine. After filtration, the radioactivity of ^125I-somatostatin-14 remaining on the filter paper was measured by a γ-counter. The binding inhibition rate (%) of each subject compound was calculated by the following formula: (TB-SB)/(TB-NSB) x 100 [formula] SB: radioactivity when a compound was added TB: maximum binding radioactivity NSB: non-specific binding radioactivity
(§4) The binding inhibition rates were measured by changing the concentrations of the subject compound, and the 50% inhibiting concentration of the subject compound (IC50 value) was calculated by the Hill plots.

Assay [2] concerns the target T2, human somatostatin receptor protein subtype 3 (SSTR3) (Homo sapiens, UniProt P32745).
T2 construct: expressed in transfected cells; host or cells: CHO (dhfr-) cells, strain SSTR3-15-19, plasmid pA1-11-SSTR3 (pAKKO-111 vector); membrane fraction
The assay is described as follows: Measurement of the binding inhibition rate of 125I-Somatostatin (SSTR3). How it is done: 1 x 10^6 CHO (dhfr^-) cells were cultured for 24 hours in HAM F12 medium containing 10% bovine fetal serum on a laboratory dish of 8 cm in diameter. The cells were transfected by 10 µg of the human SSTR3 DNA expression plasmid, pA-1-11-SSTR3, obtained under the above (5) using the calcium phosphate method. The medium was switched to DMEM medium containing 10% dialyzed bovine fetal serum 24 hours after the transfection to select the colony-forming cells (i.e. DHFR^+ cells) in this medium. Further, the selected cells were cloned from a single cell by the limiting dilution method and the somatostatin receptor protein expression activity of these cells was measured by the binding assay mentioned under the above (3). Thus, a highly somatostatin-binding cell strain, SSTR3-15-19, was selected.
as §1, §2, §3, §4

The target of assay [3] is T3, human somatostatin receptor protein subtype 5 (SSTR5) (Homo sapiens, UniProt P35346).
T3 construct: expressed in transfected cells; host or cells: CHO (dhfr-) cells, strain SSTR5-32-4, plasmid pA1-11-SSTR5 (pAKKO-111 vector); membrane fraction
Kind of assay: Measurement of the binding inhibition rate of 125I-Somatostatin (SSTR5). The method, then: 1 x 10^6 CHO (dhfr^-) cells were cultured for 24 hours in HAM F12 medium containing 10% bovine fetal serum on a laboratory dish of 8 cm in diameter. To the cells was transfected 10 µg of the human SSTR5 cDNA expression plasmid, pA-1-11-SSTR5, obtained under the above (11) by the calcium phosphate method. The medium was switched to DMEM medium containing 10% dialyzed bovine fetal serum 24 hours after the transfection to select the colony-forming cells (i.e. DHFR^+ cells) in this medium. Further, the selected cells were cloned from a single cell by the limiting dilution method and the somatostatin receptor protein expression activity of these cells was measured by binding assay mentioned under the above (3). Thus, a highly somatostatin-biding cell strain, SSTR5-32-4, was selected.
as §1, §2, §3, §4

T2 sequence (P32745 whole entry): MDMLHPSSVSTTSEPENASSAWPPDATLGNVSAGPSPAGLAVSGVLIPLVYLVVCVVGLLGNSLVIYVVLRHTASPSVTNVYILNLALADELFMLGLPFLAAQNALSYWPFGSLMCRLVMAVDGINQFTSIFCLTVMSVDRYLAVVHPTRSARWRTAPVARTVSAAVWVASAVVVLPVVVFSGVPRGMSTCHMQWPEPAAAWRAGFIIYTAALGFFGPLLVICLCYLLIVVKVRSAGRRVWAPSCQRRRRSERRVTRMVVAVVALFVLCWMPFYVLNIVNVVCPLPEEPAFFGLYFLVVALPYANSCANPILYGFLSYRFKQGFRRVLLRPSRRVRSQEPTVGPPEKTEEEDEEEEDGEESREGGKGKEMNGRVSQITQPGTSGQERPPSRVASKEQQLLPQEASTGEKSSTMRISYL
T1 sequence (P30874 whole entry): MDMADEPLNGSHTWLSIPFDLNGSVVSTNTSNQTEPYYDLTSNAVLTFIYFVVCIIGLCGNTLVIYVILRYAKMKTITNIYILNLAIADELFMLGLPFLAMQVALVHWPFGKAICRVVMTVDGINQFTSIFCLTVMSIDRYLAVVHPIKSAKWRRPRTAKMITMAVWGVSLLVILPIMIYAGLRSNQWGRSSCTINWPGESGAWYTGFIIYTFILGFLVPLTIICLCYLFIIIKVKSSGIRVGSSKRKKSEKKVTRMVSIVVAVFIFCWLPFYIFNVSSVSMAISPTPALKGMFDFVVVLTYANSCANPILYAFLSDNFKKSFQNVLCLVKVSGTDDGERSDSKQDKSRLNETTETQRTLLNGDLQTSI
T3 sequence (P35346 whole entry): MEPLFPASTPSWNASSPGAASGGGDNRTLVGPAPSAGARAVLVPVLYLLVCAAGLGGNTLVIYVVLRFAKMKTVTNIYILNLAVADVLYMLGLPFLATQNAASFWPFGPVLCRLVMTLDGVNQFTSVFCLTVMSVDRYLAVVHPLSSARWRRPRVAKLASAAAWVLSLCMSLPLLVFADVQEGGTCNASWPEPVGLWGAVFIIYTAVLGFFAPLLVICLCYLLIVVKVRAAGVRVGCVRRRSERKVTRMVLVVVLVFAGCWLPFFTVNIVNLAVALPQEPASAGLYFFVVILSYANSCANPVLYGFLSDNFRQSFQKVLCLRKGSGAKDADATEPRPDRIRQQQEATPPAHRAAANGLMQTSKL

By IC50 is commonly meant the concentration at which inhibition is half-maximal. A lower IC50 goes with greater potency in that assay. `CN(C)C[C@H]1Cc2cc(Cl)ccc2N(C(=O)[C@@H](Cc2c[nH]c3ccccc23)NC(=O)N2CCC(Oc3ccccc3)CC2)C1` [Example 145-2, N-[(1R)-2-[(3R)-6-chloro-3-[(dimethylamino)methyl]-1,2,3,4-tetrahydro-1-quinolinyl]-1-(1H-indol-3-ylmethyl)-2-oxoethyl]-4-phenoxyl-1-piperidinecarboxamide]: the IC50 in assay [1] is 1 nM; in assay [2], 10 nM; in assay [3] it was 200 nM.

Consider `CN(C)C[C@H]1Cc2cc(Cl)ccc2N(C(=O)[C@@H](Cc2c[nH]c3ccccc23)NC(=O)C2CCN(C(=O)c3cc4ccccc4n3C)CC2)C1` [Example 51, N-[(1R)-2-[(3R)-6-chloro-3-[(dimethylamino)-methyl]-1,2,3,4-tetrahydro-1-quinolinyl]-1-(1-indol-3-ylmethyl)-2-oxoethyl]-1-(1-methylindol-2-ylcarbonyl)-4-piperidinecarboxamide], for which the IC50 in assay [1] was determined as 0.3 nM; in assay [2], 80 nM; in assay [3], 400 nM.

Take `CN(C)C[C@H]1Cc2cc(Cl)ccc2N(C(=O)[C@@H](Cc2c[nH]c3ccccc23)NC(=O)N2CCC(C(=O)c3ccc(Cl)cc3)CC2)C1` [Example 130, 4-(4-chlorobenzoyl)-N-[(1R)-2-[(3R)-6-chloro-3-[(dimethylamino)methyl]-1,2,3,4-tetrahydro-1-quinolinyl]-1-(1-indol-3-ylmethyl)-2-oxoethyl]-1-piperidinecarboxamide]: the IC50 in assay [1] is 2 nM; in assay [2], 40 nM; in assay [3], 400 nM.

For `CN(C)C[C@H]1Cc2cc(Cl)ccc2N(C(=O)[C@@H](Cc2c[nH]c3ccccc23)NC(=O)CCC2CCN(C(=O)c3ccccc3)CC2)C1` [Example 31, 3-(1-benzoyl-4-piperidinyl)-N-[(1R)-2-[(3R)-6-chloro-3-[(dimethylamino)methyl]-1,2,3,4-tetrahydro-1-quinolinyl]-1-(1-indol-3-ylmethyl)-2-oxoethyl]propanamide], the results for the IC50 in assay [1], in assay [2] and in assay [3] were 2 nM, 60 nM and 300 nM, respectively.

On to `CN(C)CC1Cc2cc(Cl)ccc2N(C(=O)[C@@H](Cc2c[nH]c3ccccc23)NC(=O)C2CCN(C(=O)c3cc4ccccc4[nH]3)CC2)C1` (stereo partly drawn) [Example 14, N-[(1R)-2-[6-chloro-3-(R,S)-[(dimethylamino)methyl]-1,2,3,4-tetrahydro-1-quinolinyl]-1-(1-indol-3-ylmethyl)-2-oxoethyl]-1-(1-indol-2-ylcarbonyl)-4-piperidinecarboxamide], for which the IC50 in assay [1] amounted to 0.6 nM; in assay [2], 70 nM; in assay [3] it was 300 nM.

For the origin of these results see EP1227090A1, “AMINE DERIVATIVES” (Tadeka Chemical Industries, Ltd., priority 1999, dated 2001).
